This note sets out measurements from US6380218B1, “Nicotinamide derivatives” (Pfizer Inc, priority 1997, dated 2002).

Compound `CC(C)(O)c1cc(Cl)c(CNC(=O)c2cccnc2Oc2cccnc2)s1` [Example 44, N-[3-Chloro-5-(1-hydroxy-1-methyl-ethyl)-thiophen-2-ylmethyl]-2-(pyridin-3-yloxy)-nicotinamide] showed a melting point of 74 to 76 °C.

As for `CC(NC(=O)c1cccnc1Oc1cccnc1)c1cccs1` (centres unmarked) [Example 45, 2-(Pyridin-3-yloxy)-N-(1-thiophen-2yl-ethyl)-nicotinamide], the melting point lay in the range of 90 to 92 °C.

`Cc1ccc(CNC(=O)c2cccnc2Oc2cncc(Cl)c2)cc1` [Example 48, 2-(5-Chloro-pyridin-3-yloxy)-N-(4-methyl-benzyl)-nicotinamide] showed a melting point of 119 to 121 °C.

On to `CC(NC(=O)c1cccnc1Oc1cncc(Cl)c1)c1ccc(Cl)s1` (centres unmarked) [Example 49, 2-(5-Chloro-pyridin-3-yloxy)-N-[1-(5-chloro-thiophen-2-yl)-ethyl]-nicotinamide], for which the melting point is 110 to 112 °C.

On to `Cc1ccc(C(C)NC(=O)c2cccnc2Oc2cncc(Cl)c2)s1` (centres unmarked) [Example 50, 2-(5-Chloro-pyridin-3-yloxy)-N-[1-(5-methyl-thiophen-2-yl)-ethyl]-nicotinamide], for which the melting point lay in the range of 75 to 77 °C.

With `O=C(NCc1ccc(Cl)s1)c1cccnc1Oc1cncc(Cl)c1` [Example 51, 2-(5-Chloro-pyridin-3-yloxy)-N-(5-chloro-thiophen-2-ylmethyl)-nicotinamide], the melting point was 125 to 127 °C.

Take `Cc1ccc(CNC(=O)c2cccnc2Oc2cncc(Cl)c2)s1` [Example 52, 2-(5-Chloro-pyridin-3-yloxy)-N-(5-methyl-thiophen-2-ylmethyl)-nicotinamide]: the melting point was in the range of 81 to 83 °C.

For the compound `Cc1ccc(CNC(=O)c2cccnc2Oc2cncc(Cl)c2)o1` [Example 53, 2-(5-Chloro-pyridin-3-yloxy)-N-(5-methyl-furan-2-ylmethyl)-nicotinamide], the melting point lay in the range of 103 to 105 °C.

Regarding `Cc1ccsc1CNC(=O)c1cccnc1Oc1cncc(Cl)c1` [Example 54, 2-(5-Chloro-pyridin-3-yloxy)-N-(3-methyl-thiophen-2-ylmethyl)-nicotinamide], the melting point fell in the range of 115 to 117 °C.

On to `O=C(NCc1cc(Cl)cs1)c1cccnc1Oc1cncc(Cl)c1` [Example 55, 2-(5-Chloro-pyridin-3-yloxy)-N-(4-chloro-thiophen-2-ylmethyl)-nicotinamide], for which the melting point lay within 94 to 96 °C.

In turn, `O=C(NCc1cc2ccccc2s1)c1cccnc1Oc1cncc(Cl)c1` [Example 56, N-Benzo[b]thiophen-2-ylmethyl-2-(5-chloro-pyridin-3-yloxy)-nicotinamide] showed a melting point of 160 to 162 °C.

`O=C(NCc1ccc(Cl)o1)c1cccnc1Oc1cncc(Cl)c1` [Example 57, N-(5-Chloro-furan-2-ylmethyl)-2-(5-chloro-pyridin-3-yloxy)-nicotinamide]: the melting point lay in the range of 111 to 113 °C.

`O=C(NCC1CCCCC1)c1cccnc1Oc1cncc(Cl)c1` [Example 58, 2-(5-Chloro-pyridin-3-yloxy)-N-cyclohexylmethyl-nicotinamide] registered a melting point of 95 to 97 °C.

With `CC(C)(O)c1ccc(CNC(=O)c2cccnc2Oc2cncc(Cl)c2)cc1` [Example 59, 2-(5-Chloro-pyridin-3-yloxy)-N-[4-(1-hydroxy-1-methyl-ethyl)-benzyl]-nicotinamide], the melting point is 78 to 80 °C.

`CC(C)(O)c1cc(Cl)c(CNC(=O)c2cccnc2Oc2cncc(Cl)c2)s1` [Example 60, N-[3-Chloro-5-(1-hydroxy-1-methyl-ethyl)-thiophen-2-ylmethyl]-2-(5-chloro-pyridin-3-yloxy)-nicotinamide] yielded a melting point of 72 to 74 °C.

`O=C(NCc1ccc(Cl)s1)c1cccnc1Oc1ccc(F)cc1` [Example 61, N-(5-Chloro-thiophen-2-ylmethyl)-2-(4-fluoro-phenoxy)-nicotinamide] yielded a melting point of 91 to 93 °C.

As to `O=C(NCc1cc(Cl)cs1)c1cccnc1Oc1ccc(F)cc1` [Example 62, N-(4-Chloro-thiophen-2-ylmethyl)-2-(4-fluoro-phenoxy)-nicotinamide], the melting point is 99 to 101 °C.

The compound `O=C(NCc1ccc(Cl)o1)c1cccnc1Oc1ccc(F)cc1` [Example 63, N-(5-Chloro-furan-2-ylmethyl)-2-(4-fluoro-phenoxy)-nicotinamide] came in with a melting point of 116 to 118 °C.

For `O=C(NCc1cc2ccccc2s1)c1cccnc1Oc1ccc(F)cc1` [Example 65, N-Benzo[b]thiophen-2-ylmethyl-2-(4-fluoro-phenoxy)-nicotinamide], the melting point lay in the range of 109 to 111 °C.

As to `O=C(NCc1c(F)cc(F)cc1F)c1cccnc1Oc1ccc(F)cc1` [Example 67, 2-(4-Fluoro-phenoxy)-N-(2,4,6-trifluoro-benzyl)-nicotinamide], the melting point lay in the range of 128 to 130 °C.

Regarding `O=C(NCc1scc(Cl)c1Cl)c1cccnc1Oc1ccc(F)cc1` [Example 68, N-(3,4-Dichloro-thiophen-2-ylmethyl)-2-(4-fluoro-phenoxy)-nicotinamide], the melting point fell in the range of 132 to 134 °C.

`O=C(NCc1sccc1Cl)c1cccnc1Oc1ccc(F)cc1` [Example 69, N-(3-Chloro-thiophen-2-ylmethyl)-2-(4-fluoro-phenoxy)-nicotinamide] registered a melting point of 134 to 136 °C.

`O=C(NCc1ccccc1Cl)c1cccnc1OCc1ccc(F)cc1` [Example 70, N-(2-Chloro-benzyl)-2-(4-fluoro-benzyloxy)-nicotinamide] yielded a melting point of 64 to 66 °C.

`O=C(NCc1ccc([N+](=O)[O-])cc1)c1cccnc1Oc1ccc(F)cc1` [Example 72, 2-(4-Fluoro-phenoxy)-N-(4-nitro-benzyl)-nicotinamide]: the melting point was 155 to 157 °C.

`O=C1Cc2cc(CNC(=O)c3cccnc3Oc3ccc(F)cc3)ccc2N1` [Example 73, 2-(4-Fluoro-phenoxy)-N-(2-oxo-2,3-dihydro-1H-indol-5-ylmethyl)-nicotinamide] gave a melting point of 180 to 182 °C.

`O=C(Nc1ccc2[nH]c(=O)oc2c1)c1cccnc1Oc1ccc(F)cc1` [Example 74, 2-(4-Fluoro-phenoxy)-N-(2-oxo-2,3-dihydro-benzooxazol-6-yl)-nicotinamide] gave a melting point of 289 to 291 °C.

In turn, `CCOC(=O)c1cc2cc(CNC(=O)c3cccnc3Oc3ccc(F)cc3)ccc2[nH]1` [Example 75, 5-({[2-(4-Fluoro-phenoxy)-pyridine-3-carbonyl]-amino}-methyl)-1H-indole-2-carboxylic acid ethyl ester] had a melting point of 185 to 187 °C.

As for `CC(C)(C)c1cc(CNC(=O)c2cccnc2Oc2ccc(F)cc2)cc(C(C)(C)C)c1O` [Example 76, N-[3,5-Di-tert-butyl-4-hydroxy-benzyl)-2-(4-fluoro-phenoxyl)nicotinamide], the melting point was in the range of 45 to 47 °C.

In the case of `Cc1cc(CNC(=O)c2cccnc2Oc2ccc(F)cc2)cc(C)c1O` [Example 78, 2-(4-Fluoro-phenoxy)-N-(4-hydroxy-3,5-dimethyl-benzyl)-nicotinamide], the melting point lay in the range of 142 to 144 °C.

Regarding `CC(C)(O)c1ccc(CNC(=O)c2cccnc2Oc2ccc(F)cc2)o1` [Example 79, 2-(4-Fluoro-phenoxy)-N-[5-(1-hydroxy-1-methyl-ethyl)-furan-2-ylmethyl]-nicotinamide], the melting point is 88 to 90 °C.

On to `CCC(O)(CC)c1ccc(CNC(=O)c2cccnc2Oc2ccc(F)cc2)s1` [Example 80, N-[5-(1-Ethyl-1-hydroxy-propyl)-thiophen-2-ylmethyl]-2-(4-fluoro-phenoxy)-nicotinamide], for which the melting point lay in the range of 95 to 97 °C.

The compound `CC(C)(O)c1sc(CNC(=O)c2cccnc2Oc2ccc(F)cc2)cc1Cl` [Example 81, N-[4-Chloro-5-(1-hydroxy-1-methyl-ethyl]-thiophen-2-ylmethyl]-2-(4-fluoro-phenoxy)-nicotinamide] yielded a melting point of 115 to 117 °C.

In turn, `CC(NC(=O)c1cccnc1Oc1ccc(F)cc1)c1ccc(Br)cc1` (centres unmarked) [Example 82, N-[1-(4-Bromo-phenyl)-ethyl]-2-(4-fluoro-phenoxy)-nicotinamide] had a melting point of 120 to 122 °C.

As for `CC(C)(O)c1cc(Cl)c(CNC(=O)c2cccnc2Oc2ccc(F)cc2)s1` [Example 84, N-[3-Chloro-5-(1-hydroxy-1-methyl-ethyl)-thiophen-2-ylmethyl]-2-(4-fluoro-phenoxy)-nicotinamide], the melting point was in the range of 85 to 87 °C.

Take `O=C(NCc1ccc(C2(O)CCC2)cc1)c1cccnc1Oc1ccc(F)cc1` [Example 85, 2-(4-Fluoro-phenoxy)-N-[4-(1-hydroxy-cyclobutyl)-benzyl]-nicotinamide]: the melting point fell in the range of 95 to 97 °C.

For the compound `CC(C)(O)c1ccc(CNC(=O)c2cccnc2Oc2ccc(F)cc2)c(Cl)c1` [Example 86, N-[2-Chloro-4-(1-hydroxy-1-methyl-ethyl)-benzyl]-2-(4-fluoro-phenoxy)-nicotinamide], the melting point lay in the range of 102 to 104 °C.

As to `O=C(NCc1ccc(N2CCC2)cc1)c1cccnc1Oc1ccc(F)cc1` [Example 87, N-(4-Azetidin-1-yl-benzyl)-2-(4-fluoro-phenoxy)-nicotinamide], the melting point lay in the range of 128 to 129 °C.

For `O=C(NCc1ccc(N2CC(O)C2)cc1)c1cccnc1Oc1ccc(F)cc1` [Example 88, 2-(4-Fluoro-phenoxy)-N-[4-(3-hydroxy-azetidin-1-yl)-benzyl]-nicotinamide], the melting point fell in the range of 157 to 159 °C.

In the case of `O=C(NCc1ccc(N2CCCC2)cc1)c1cccnc1Oc1ccc(F)cc1` [Example 89, 2-(4-Fluoro-phenoxy)-N-(4-pyrrolidin-1-yl-benzyl)-nicotinamide], the melting point fell in the range of 127 to 128 °C.

`O=C(NCc1ccc(N2CCCCC2)cc1)c1cccnc1Oc1ccc(F)cc1` [Example 90, 2-(4-Fluoro-phenoxy)-N-(4-piperidin-1-yl-benzyl)-nicotinamide] returned a melting point of 118 to 119 °C.

Consider `O=C(NCc1ccc(N2CCOCC2)cc1)c1cccnc1Oc1ccc(F)cc1` [Example 91, 2-(4-Fluoro-phenoxy)-N-(4-morpholin-4-yl-benzyl)-nicotinamide], for which the melting point was in the range of 163 to 165 °C.

As usually defined, the melting point is the temperature of the solid-liquid transition.
